The source of these data is patent publication US10730826B2, “Ketone inhibitors of lysine gingipain” (CORTEXYME, INC., priority 2016, dated 2020).

The target of one series is Cathepsin L (Homo sapiens (Human), UniProt P07711). The experiment in a line: Cathepsin L inhibition assay. The class given is biochemical. The note with it: read-out: IC50 (nM) CatL. As for the experimental part: (§1) The capacities of compounds of the present invention to inhibit the activity of cathepsins B, H, K, L, and S were measured in similar assays. Boc-Leu-Arg-Arg-AMC (20 μM) in sodium acetate buffer (50 mM, pH 5.5) containing DTT (1 mM) and EDTA (2 mM) was used for the Cathepsin B assay. L-Arg-AMC (20 μM) in sodium acetate buffer (50 mM, pH 5.5) containing DTT (1 mM) and EDTA (2 mM) was used for the Cathepsin H assay. Z-Phe-Arg-AMC (10 μM) in HEPES buffer (50 mM, pH 7.4) containing DTT (2.5 mM) and EDTA (1 mM) was used for the Cathepsin K assay. Z-Phe-Arg-AMC (20 μM) in sodium acetate buffer (50 mM, pH 5.5) containing DTT (1 mM) and EDTA (2 mM) was used for the Cathepsin L assay. Z-Leu-Arg-AMC (10 μM) in sodium acetate buffer (25 mM, pH 4.5) containing DTT (2.5 mM) and NaCl (50 mM) was used for the Cathepsin S assay. The capacities of the compounds to inhibit the activity of cathepsins F, V, and Z were also measured.
(§2) Further assays to measure the inhibitory activity of compounds of the present invention against Kgp and cathepsins B, H, K, L, and S were conducted as described in Example 66. The capacities of the compounds to inhibit the activity of cathepsins F, V, and Z were also measured.

A further series concerns the target Cathepsin K (Homo sapiens (Human), UniProt P43235). The experiment in a line: Cathepsin K inhibition assay. The class given is biochemical. The conditions noted are these: read-out: IC50 (nM) CatK. As for the experimental part: as §1, §2
Another series deals with Cathepsin B (Homo sapiens (Human), UniProt P07858). The series is described as follows: Cathepsin B inhibition assay. The class given is biochemical. The note with it: read-out: IC50 (nM) CatB. The protocol:
as §1, §2

The target in series [1] is lysine gingipain (Kgp) (Porphyromonas gingivalis (Bacteroides gingivalis), UniProt P72194). The series is described as follows: biochemical. Type of series: biochemical. The conditions noted are these: IC50 (nM) Kgp. The protocol: (§3) The specific assay conditions were as follows. Buffer: pH=7.5, 100 mM Tris-HCl, 75 mM NaCl, 2.5 mM CaCl2), 10 mM cysteine, 1% DMSO after all additions. Protein: 0.1 nM Kgp, isolated from culture of Porphyromonas gingivalis, as described by Pike et al. (J. Biol. Chem. 1994, 269(1), 406), and Potempa and Nguyen (Current Protocols in Protein Science. 2007, 21.20.1-21.20.27). Fluorogenic substrate: 10 μM Z-His-Glu-Lys-MCA. Time=90 minutes. Temperature=37° C.
as §2

Another series has as its target Cathepsin S (Homo sapiens (Human), UniProt P25774). The experiment in a line: Cathepsin S inhibition assay. The class given is biochemical. The note with it: read-out: IC50 (nM) CatS. As for the experimental part: as §1, §2
Series [2] deals with lysine gingipain (Kgp). The experiment in a line: biochemical. The class given is biochemical, Porphyromonas gingivalis. The note with it: as compared to reference compound 73. The protocol: as §3, §2
The nature of series [3]: Pharmacokinetics in male CD-1 mice dosed p.o. The class given is in vivo. The conditions noted are these: p.o. 10 mg/kg, compared to reference compound 73.

Structures are written as SMILES. Like-named read-outs stand apart in the source and are kept apart here.

Broadly, the IC50 is the concentration that inhibits the measured activity by half.

On to `NCCCCC(NC(=O)C1CCCC1)C(=O)COc1cccc(F)c1` (stereo not shown) [Compound 7a], for which the IC50 on Cathepsin L (Table 3) is 5530 nM; at Cathepsin L (Table 4) it was more than 10000 nM; at Cathepsin K (Table 3), 20200 nM; on Cathepsin K (Table 4), more than 10000 nM; on Cathepsin B (Table 3), 49600 nM; on Cathepsin B (Table 4), more than 10000 nM. The IC50 at lysine gingipain (Kgp) [1] (Table 3) is 1.3 nM; on lysine gingipain (Kgp) [1] (Table 4) it was 1.3 nM; at Cathepsin S (Table 3) it was 24100 nM; at Cathepsin S (Table 4), more than 10000 nM.

Regarding `CN(C)CC(=O)C(CCCCN)NC(=O)C1CCCC1` (stereo not shown) [Compound 19a], on lysine gingipain (Kgp) [1] (Table 3), the IC50 is more than 100 nM.

In the case of `COC(C)(C)C(=O)NC(CCCCN)C(=O)COc1cc(C)nc(C)c1` (stereo not shown) [Compound 63a], it took 0.09 nM to reach half-maximal inhibition at lysine gingipain (Kgp) [1] (Table 4) (IC50).

`NCCCCC(NC(=O)c1cccc(OCCCF)c1)C(=O)COc1c(F)cccc1F` (stereo not shown) [Compound 30a] returned a 50% inhibitory concentration (IC50) at lysine gingipain (Kgp) [1] (Table 4) of 0.21 nM.

In turn, `NCCCCC(NC(=O)c1cccnc1)C(=O)COc1c(F)ccc(F)c1F` (stereo not shown) [Compound 42a] yielded a half-inhibitory concentration (IC50) at lysine gingipain (Kgp) [1] (Table 4) of 0.06 nM.

As to `[N-]=[N+]=Nc1cccc(C(=O)NC(CCCCN)C(=O)COc2c(F)cccc2F)c1` (stereo not shown) [Compound 33a], on lysine gingipain (Kgp) [1] (Table 4), the IC50 is 0.08 nM.

For the molecule `NCCCCC(NC(=O)c1ccccc1)C(=O)C(F)F` (stereo not shown) [Compound 37a], the IC50 against lysine gingipain (Kgp) [1] (Table 4) is more than 100 nM.

With `NCCCCC(NC(=O)C1CCCC1)C(=O)Cn1cncc(F)c1=O` (stereo not shown) [Compound 41a], on lysine gingipain (Kgp) [1] (Table 4), the IC50 was more than 100 nM.

Regarding `NCCCCC(NC(=O)C1CCCC1)C(=O)COc1ccon1` (stereo not shown) [Compound 49a], on lysine gingipain (Kgp) [1] (Table 4), inhibition was half-maximal at 0.23 nM (IC50).

`COC(C)(C)C(=O)NC(CCCCN)C(=O)COc1cccnc1` (stereo not shown) [Compound 64a] registered an IC50 against lysine gingipain (Kgp) [1] (Table 4) of 0.4 nM.

As to `NCCCC[C@H](NC(=O)C1CCCC1)C(=O)COC(C(F)(F)F)C(F)(F)F` [Compound 18, (S)—N-(7-amino-1-((1,1,1,3,3,3-hexafluoropropan-2-yl)oxy)-2-oxoheptan-3-yl)cyclopentanecarboxamide], the “selectivity for Kgp over endogenous cathepsins” value in the series on lysine gingipain (Kgp) [2] was “far more selective”.

In turn, `COC(C)(C)C(=O)NC(CCCCN)C(=O)COc1c(F)cccc1F` (stereo not shown) [Compound 48a] registered an IC50 against lysine gingipain (Kgp) [1] (Table 4) of 0.07 nM.

In the case of `NCCCCC(NC(=O)c1cccnc1F)C(=O)COc1ccon1` (stereo not shown) [Compound 56a], at lysine gingipain (Kgp) [1] (Table 4), 0.1 nM corresponded to half-maximal inhibition (IC50).

For `NCCCC[C@H](NC(=O)c1ccc(F)nc1)C(=O)COc1ccon1` [Compound 55, (S)—N-(7-amino-1-(isoxazol-3-yloxy)-2-oxoheptan-3-yl)-6-fluoronicotinamide], in the series with lysine gingipain (Kgp) [2], the “selectivity for Kgp over endogenous cathepsins” value is reported as “far more selective”.

Regarding `COC(C)(C)C(=O)N[C@@H](CCCCN)C(=O)COc1c(F)cccc1F` [Compound 48, (S)—N-(7-amino-1-(2,6-difluorophenoxy)-2-oxoheptan-3-yl)-2-methoxy-2-methylpropanamide], in series [3], the oral availability entry is recorded as “improved oral availability” and the plasma concentrations entry is “increased plasma concentrations”.

Regarding `NCCCCC(NC(=O)C1CCCC1)C(=O)COc1cc(F)ccc1F` (stereo not shown) [Compound 6a], the half-maximal inhibitory concentration (IC50) is more than 100000 nM at Cathepsin L (Table 3); more than 100000 nM on Cathepsin K (Table 3); 20300 nM at Cathepsin B (Table 3); 0.19 nM against lysine gingipain (Kgp) [1] (Table 3); 42800 nM at Cathepsin S (Table 3).

For `[N-]=[N+]=Nc1cccc(C(=O)NC(CCCCN)C(=O)COc2c(F)cccc2F)c1` (stereo not shown) [Compound 12a], the IC50 against lysine gingipain (Kgp) [1] (Table 3) was 0.08 nM.

The molecule `NCCCCC(NC(=O)C1CCCC1)C(=O)COCC(F)(F)F` (stereo not shown) [Compound 17a] showed an IC50 against lysine gingipain (Kgp) [1] (Table 3) of more than 100 nM.

As to `CS(C)(=O)=CC(=O)C(CCCCN)NC(=O)C1CCCC1` (stereo not shown) [Compound 58a], at lysine gingipain (Kgp) [1] (Table 4), the concentration for half-maximal inhibition (IC50) worked out at 4.66 nM.

The molecule `COC(C)(C)C(=O)NC(CCCCN)C(=O)COc1ccon1` (stereo not shown) [Compound 57a] gave a concentration for half-maximal inhibition (IC50) against lysine gingipain (Kgp) [1] (Table 4) of 0.09 nM.

On to `NCCCCC(NC(=O)c1cccnc1)C(=O)COc1c(F)cccc1F` (stereo not shown) [Compound 43a], for which half-maximal inhibition against lysine gingipain (Kgp) [1] (Table 4) (IC50) was put at 0.09 nM.

For `CN(C)c1ccc(C(=O)NC(CCCCN)C(=O)COc2ccon2)cn1` (stereo not shown) [Compound 62a], the midpoint of inhibition against lysine gingipain (Kgp) [1] (Table 4), the IC50, lay at 0.14 nM.

In the case of `C[N+](C)(C)c1ccc(C(=O)NC(CCCCN)C(=O)COc2ccon2)cn1` (stereo not shown) [Compound 61a], at lysine gingipain (Kgp) [1] (Table 4), the concentration for half-maximal inhibition (IC50) came to 0.43 nM.
